The test system of assay [1] is SD male rat oral ulcer model. The experiment in a line: Efficacy in SD male rat oral ulcer model after 7 days of treatment. In kind it is in vivo. The following applies: SD male rats; for Ulcer healing rate / Ulcer area Day 7: 1 mg/rat; for Ulcer healing rate: 2 times daily for 7 days; for Ulcer healing rate / Ulcer area Day 7 / Ulcer area Day 0: n = 6; for Ulcer area Day 7: 50 μL applied to ulcer 2 times daily for 7 days; for Ulcer area Day 0: glacial acetic acid oral ulcer, Day 0 (baseline). The method, then:
Eighteen SD male rats were randomly divided into 3 groups, i.e., a model group (propylene glycol vehicle group), a 2% indigo group (1 mg/rat), and a 2% tapinarof group (1 mg/rat). Oral ulcer modeling: a 1 cm×0.6 cm filter paper (soaked into a 60% glacial acetic acid solution) was placed on the labial mucosa of the alveolar bone beneath the lower incisor in a rat and maintained for 1 min. Administration: after the rats were anesthetized, 50 μL of the solution in each group was pipetted by using a pipettor and evenly applied to the ulcer part 2 times daily for 7 consecutive days. After each group was treated with glacial acetic acid, symptoms such as pseudomembrane covering, central depression, red and swollen edges, significant pain response after stimulation, etc. appeared, and after the administration was completed, various symptoms were relieved.

Assay [2] relates to DB/DB male mouse diabetic foot ulcer model. The experiment in a line: Efficacy in DB/DB male mouse diabetic foot ulcer model after 10 days of treatment. It is filed as in vivo. Conditions: DB/DB male mice; for Ulcer healing rate / Ulcer area Day 10: 1 mg/mouse; for Ulcer healing rate: 2 times daily for 10 days, ** p<0.05 vs vehicle; for Ulcer healing rate / Ulcer area Day 10 / Ulcer area Day 0: n = 6; for Ulcer area Day 10: 50 μL applied to ulcer 2 times daily for 10 days; for Ulcer area Day 0: foot ulcer, Day 0 (baseline). Here is the method:
Eighteen DB/DB male mice were randomly divided into 3 groups, i.e., a model group (propylene glycol vehicle group), a 2% indigo group (1 mg/mouse), and a 2% tapinarof group (1 mg/mouse).
Foot ulcer modeling: after the mouse was anesthetized, the foot was disinfected; a 4 mm×5 mm rectangular region was marked on the dorsum of the foot; and the skin and fascia were removed within the region.
Administration: on the dorsum of the foot of the mouse, 50 μL of the solution in each group was pipetted by using a pipettor and evenly applied to the ulcer part 2 times daily for 10 consecutive days, and the length and the width of the ulcer were recorded.
Statistical analysis was performed by using one-way ANOVA. As compared to the vehicle group, ** indicates p<0.05.

Turning to `O=C1/C(=C2\Nc3ccccc3C2=O)Nc2ccccc21` [2% indigo, indigo, reference compound], in assay [1], the Ulcer healing rate was 52%, the “Ulcer area Day 7” value is 22.09 mm^2 and the “Ulcer area Day 0” value was 46.33 mm^2. Also, in assay [2], the Ulcer healing rate is listed as 26%, the “Ulcer area Day 10” value was 13.30 mm^2 and the “Ulcer area Day 0” value stood at 17.99 mm^2.
As to `CC(C)c1c(O)cc(/C=C/c2ccccc2)cc1O` [2% tapinarof, tapinarof], in assay [1], the Ulcer healing rate is recorded as 58%, the “Ulcer area Day 7” value is 19.70 mm^2 and the “Ulcer area Day 0” value worked out at 46.90 mm^2. Further, the “therapeutic effect in rat oral ulcer model (in words)” value in assay [1] (7 days of treatment) was “good therapeutic effect, and its efficacy was superior to that of 2% indigo”. In addition, in assay [2], the Ulcer healing rate came to 39%**, the “Ulcer area Day 10” value was 10.93 mm^2 and the “Ulcer area Day 0” value is reported as 18.19 mm^2. Also, the “effect in mouse diabetic foot ulcer model (in words)” value in assay [2] (after 10 days of administration) is on record as “significant inhibitory effect, which was superior to that of the 2% indigo group”.
